The values below come from ChEMBL document CHEMBL1250481, “Isoxazole analogs of curcuminoids with highly potent multidrug-resistant antimycobacterial activity” (2010).

Values after ≈ are worked out from the molar mass of the structure shown. Active and inactive are the calls of the source. No cut-off for these calls is given here.

The subject of the first experiment is Mycobacterium tuberculosis. Kind of experiment: Antimycobacterial activity against Mycobacterium tuberculosis H37Ra after 24 hrs by microtiter alamar blue assay. Type of experiment: functional.
What is called MIC is the least concentration at which growth counts as inhibited. `COc1cc(/C=C/C(=O)/C=C/CCc2ccc(O)c(OC)c2)ccc1O` displayed an MIC of 12.5 µg/mL (≈ 35.3 µM). On the same count and under the same terms, the value for `Oc1ccc(/C=C/c2cc(/C=C/c3ccc(O)c(O)c3)on2)cc1O` was 200 µg/mL (≈ 593 µM); that for `C=CCOc1ccc(/C=C/C(=O)CC(=O)/C=C/c2ccc(O)c(OC)c2)cc1OC` was 100 µg/mL (≈ 245 µM); that for `COc1cc(CC/C=C/C(=O)CCc2ccc(O)c(OC)c2)ccc1O` was 25 µg/mL (≈ 70.1 µM).

The molecule `COc1ccc(/C=C/C(=O)CC(=O)/C=C/c2ccc(OC)c(OC)c2)cc1OC` [TETRAMETHOXYCURCUMIN] gave an MIC of 100 µg/mL (≈ 252 µM). In turn, `COc1cc(CCC(=O)CC(=O)CCc2ccc(O)c(OC)c2)ccc1O` [TETRAHYDROCURCUMIN] returned an MIC of 50 µg/mL (≈ 134 µM). The same measure, in the same setting: to `CCCOc1ccc(/C=C/C(=O)CC(=O)/C=C/c2ccc(OCCC)c(OC)c2)cc1OC` belongs 200 µg/mL (≈ 442 µM); to `CCCOc1ccc(/C=C/C(=O)CC(=O)/C=C/c2ccc(O)c(OC)c2)cc1OC`, 25 µg/mL (≈ 60.9 µM); to `COc1cc(/C=C/C=C/C(=O)/C=C/c2ccc(O)c(OC)c2)ccc1O`, 12.5 µg/mL (≈ 35.5 µM).

On to `COc1cc(/C=C/c2cc(/C=C/c3ccc(OC(C)=O)c(OC)c3)on2)ccc1OC(C)=O`, for which 1.56 µg/mL (≈ 3.47 µM) was the least that counted as inhibitory (MIC). The same measure, in the same setting: to `COc1cc(/C=C/C=C/C(=O)CCc2ccc(O)c(OC)c2)ccc1O` belongs 25 µg/mL (≈ 70.5 µM). Still for that read-out and setting: the value for `COc1cc(/C=C/c2cc(/C=C/c3ccc(OC)c(OC)c3)on2)ccc1O` was 0.78 µg/mL (≈ 2.06 µM); that for `COc1cc(CCCCC(=O)CCc2ccc(O)c(OC)c2)ccc1O` was 100 µg/mL (≈ 279 µM); that for `COc1cc(/C=C/C(=O)CC(=O)/C=C/c2ccc(OC(C)=O)c(OC)c2)ccc1O` was 100 µg/mL (≈ 244 µM). On the same count and under the same terms, the value for `CC(=O)Oc1ccc(/C=C/C(=O)CC(=O)/C=C/c2ccc(O)cc2)cc1` was 25 µg/mL (≈ 71.4 µM); that for `O=C(/C=C/c1ccc(O)c(O)c1)CC(=O)/C=C/c1ccc(O)c(O)c1` [DIDEMETHYLCURCUMIN] was 100 µg/mL (≈ 294 µM); that for `NC[C@H]1O[C@H](O[C@H]2[C@H](O)[C@@H](O[C@H]3O[C@H](CO)[C@@H](O)[C@H](N)[C@H]3O)[C@H](N)C[C@@H]2N)[C@H](O)[C@@H](O)[C@@H]1O` [KANAMYCIN] was 2.5 µg/mL (≈ 5.16 µM). In the case of `COc1cc(/C=C/C(=O)CC(=O)CCc2ccc(O)c(OC)c2)ccc1O`, the MIC amounted to 200 µg/mL (≈ 540 µM).

As to `COc1cc(/C=C/C(=O)CC(=O)/C=C/c2ccc(OCCO)c(OC)c2)ccc1O`, inhibition of growth (MIC) required 200 µg/mL (≈ 485 µM). Same read-out and setting: the value for `COc1cc(/C=C/C(=O)CC(=O)/C=C/c2ccc(O)cc2)ccc1OC(C)=O` was 50 µg/mL (≈ 131 µM); that for `COc1cc(/C=C/C(=O)CC(=O)/C=C/c2ccc(OCCO)c(OC)c2)ccc1OCCO` was 200 µg/mL (≈ 438 µM).

Regarding `COc1cc(/C=C/c2cc(/C=C/c3ccc(OC(C)=O)c(OC)c3)on2)ccc1O`, the MIC stood at 1.56 µg/mL (≈ 3.83 µM).

In turn, `CC(=O)Oc1ccc(/C=C/C(=O)CC(=O)/C=C/c2ccc(OC(C)=O)cc2)cc1` came in with an MIC of 25 µg/mL (≈ 63.7 µM). On the same count and under the same terms, the value for `COc1cc(CCC(=O)CC(O)CCc2ccc(O)c(OC)c2)ccc1O` (stereo not drawn) [HEXAHYDROCURCUMIN] was 100 µg/mL (≈ 267 µM); that for `COc1cc(/C=C/c2cc(/C=C/c3ccc(O)c(OC)c3)n(-c3ccccc3)n2)ccc1O` was 25 µg/mL (≈ 56.8 µM).

`Oc1ccc(/C=C/c2cc(/C=C/c3ccc(O)cc3)[nH]n2)cc1` registered an MIC of 25 µg/mL (≈ 82.1 µM). The molecule `COc1cc(/C=C/c2cc(/C=C/c3ccc(O)c(OC)c3)on2)ccc1O` displayed an MIC of 1.56 µg/mL (≈ 4.27 µM). On the same count and under the same terms, the value for `COc1cc(/C=C/c2cc(/C=C/c3ccc(O)cc3)[nH]n2)ccc1O` was 100 µg/mL (≈ 299 µM); that for `COc1ccc(/C=C/c2cc(/C=C/c3ccc(OC)c(OC)c3)on2)cc1OC` was 0.39 µg/mL (≈ 0.991 µM); that for `O=C(/C=C/c1ccc(O)cc1)CC(=O)/C=C/c1ccc(O)cc1` [BISDEMETHOXYCURCUMIN] was 25 µg/mL (≈ 81.1 µM).

Turning to `COc1cc(/C=C/C(=O)CC(=O)/C=C/c2ccc(OC)c(OC)c2)ccc1O`, the MIC was 50 µg/mL (≈ 131 µM). On the same count and under the same terms, to `COc1cc(/C=C/C(O)=C/C(=O)/C=C/c2ccc(O)cc2)ccc1O` [DEMETHOXYCURCUMIN] belongs 50 µg/mL (≈ 148 µM). On the same count and under the same terms, to `Oc1ccc(/C=C/c2cc(/C=C/c3ccc(O)cc3)on2)cc1` belongs 12.5 µg/mL (≈ 40.9 µM); to `CO[C@H]1/C=C/O[C@@]2(C)Oc3c(C)c(O)c4c(O)c(c(/C=N/N5CCN(C)CC5)c(O)c4c3C2=O)NC(=O)/C(C)=C\C=C\[C@H](C)[C@H](O)[C@@H](C)[C@@H](O)[C@@H](C)[C@H](OC(C)=O)[C@@H]1C` [RIFAMPIN], 0.004 µg/mL (≈ 0.00486 µM). On the same count and under the same terms, to `CCCCCOc1ccc(/C=C/c2cc(/C=C/c3ccc(O)c(OC)c3)no2)cc1OC` belongs 6.25 µg/mL (≈ 14.4 µM). For the molecule `COc1cc(/C=C/C(=O)CC(=O)/C=C/c2ccc(OC(C)=O)cc2)ccc1O`, the MIC was found to be 50 µg/mL (≈ 131 µM). Regarding `COc1cc(/C=C/C(=O)CC(=O)/C=C/c2ccc(O)c(O)c2)ccc1O`, the MIC came to 200 µg/mL (≈ 564 µM).

The molecule `COc1cc(/C=C/C(=O)CC(=O)/C=C/c2ccc(OC(C)=O)c(OC)c2)ccc1OC(C)=O` yielded an MIC of 200 µg/mL (≈ 442 µM). The molecule `CCCCCOc1ccc(/C=C/c2cc(/C=C/c3ccc(O)c(OC)c3)on2)cc1OC` displayed a minimal inhibitory concentration (MIC) of 0.39 µg/mL (≈ 0.895 µM). For the molecule `COc1cc(/C=C/c2cc(/C=C/c3ccc(O)c(OC)c3)[nH]n2)ccc1O` [CURCUMIN PYRAZOLE], 200 µg/mL (≈ 549 µM) was the least that counted as inhibitory (MIC).

In turn, `NNC(=O)c1ccncc1` [ISONIAZID] had a minimal inhibitory concentration (MIC) of 0.06 µg/mL (≈ 0.438 µM). For the molecule `O=C(/C=C/c1ccc(O)cc1)CC(=O)/C=C/c1ccc(O)c(O)c1`, the MIC was found to be 200 µg/mL (≈ 617 µM). Still for that read-out and setting: the value for `COc1cc(/C=C/C(=O)CC(=O)/C=C/c2ccc(O)c(OC)c2)ccc1O` [CURCUMIN] was 100 µg/mL (≈ 271 µM); that for `CCCCCOc1ccc(/C=C/C(=O)CC(=O)/C=C/c2ccc(O)c(OC)c2)cc1OC` was 12.5 µg/mL (≈ 28.5 µM); that for `COc1cc(CCc2cc(CCc3ccc(O)c(OC)c3)on2)ccc1O` was 100 µg/mL (≈ 271 µM). On the same count and under the same terms, the value for `COc1cc(/C=C/c2cc(/C=C/c3ccc(OC)c(OC)c3)no2)ccc1O` was 0.09 µg/mL (≈ 0.237 µM).

Take `CCCCCOc1ccc(/C=C/C(=O)CC(=O)/C=C/c2ccc(OCCCCC)c(OC)c2)cc1OC`: inhibition of growth (MIC) required 100 µg/mL (≈ 197 µM). Molecule `COc1cc(/C=C/c2cc(/C=C/c3ccc(OC(C)=O)c(OC)c3)no2)ccc1O` gave a minimal inhibitory concentration (MIC) of 1.56 µg/mL (≈ 3.83 µM). The molecule `COc1cc(/C=C/C(=O)CC(=O)/C=C/c2ccc(OC(C)=O)cc2)ccc1OC(C)=O` registered an MIC of 100 µg/mL (≈ 237 µM). Still for that read-out and setting: the value for `COc1cc(/C=C/c2cc(CCc3ccc(O)c(OC)c3)on2)ccc1O` was 6.25 µg/mL (≈ 17 µM).

For the next experiment, the system named is Mycobacterium tuberculosis. As to the kind of experiment: Antimycobacterial activity against Mycobacterium tuberculosis H37Ra at 200 ug/ml after 24 hrs by microtiter alamar blue assay. The experiment is classed as functional, organism-based. In general terms: The colour change of resazurin is a common sign of viable cells or microbes.
In the case of `COc1cc(CCC(O)CC(O)CCc2ccc(O)c(OC)c2)ccc1O` (stereo not drawn), the MIC result was “inactive”. On the same count and under the same terms, the value for `CCCCCOc1ccc(/C=C/c2cc(/C=C/c3ccc(OCCCCC)c(OC)c3)on2)cc1OC` was “inactive”; that for `C=CCOc1ccc(/C=C/C(=O)CC(=O)/C=C/c2ccc(OCC=C)c(OC)c2)cc1OC` was “inactive”. The same measure, in the same setting: the value for `COc1ccc(/C=C/c2cc(/C=C/c3ccc(OC)cc3)on2)cc1` was “inactive”.

A further experiment has as its system Mycobacterium tuberculosis. Kind of experiment: Antimycobacterial activity against Pan-sensitive Mycobacterium tuberculosis H37Ra after 24 hrs by microtiter alamar blue assay. Type of experiment: functional.
`COc1cc(/C=C/c2cc(/C=C/c3ccc(OC)c(OC)c3)on2)ccc1O` registered an MIC of 0.78 µg/mL (≈ 2.06 µM).

Turning to `CCCCCOc1ccc(/C=C/c2cc(/C=C/c3ccc(O)c(OC)c3)no2)cc1OC`, inhibition of growth (MIC) required 6.25 µg/mL (≈ 14.4 µM).

In turn, `CCCCCOc1ccc(/C=C/c2cc(/C=C/c3ccc(O)c(OC)c3)on2)cc1OC` displayed an MIC of 0.39 µg/mL (≈ 0.895 µM). With `COc1cc(/C=C/c2cc(/C=C/c3ccc(OC)c(OC)c3)no2)ccc1O`, it took 0.09 µg/mL (≈ 0.237 µM) to inhibit growth (MIC).
